Experimental data from patent publication US20250034110A1, “LPAR1 ANTAGONISTS AND USES THEREOF” (Pipeline Therapeutics, Inc., priority 2021, published 2025).
Where two headings read alike, the source gives them in different places.

Biological target: human LPAR1 (Homo sapiens, UniProt Q92633)
Experiment: In vitro functional assay of lysophosphatidic acid receptor 1 activity (calcium flux)
Format: cell-based
[1] = B103 cells stably expressing human LPAR1, calcium flux (Fluo-4 NW) after lysophosphatidic acid (18:1) at EC80, 100 pM to 10 μM, read-out: LPAR1 IC50

Sequence of human LPAR1 (Q92633 whole entry): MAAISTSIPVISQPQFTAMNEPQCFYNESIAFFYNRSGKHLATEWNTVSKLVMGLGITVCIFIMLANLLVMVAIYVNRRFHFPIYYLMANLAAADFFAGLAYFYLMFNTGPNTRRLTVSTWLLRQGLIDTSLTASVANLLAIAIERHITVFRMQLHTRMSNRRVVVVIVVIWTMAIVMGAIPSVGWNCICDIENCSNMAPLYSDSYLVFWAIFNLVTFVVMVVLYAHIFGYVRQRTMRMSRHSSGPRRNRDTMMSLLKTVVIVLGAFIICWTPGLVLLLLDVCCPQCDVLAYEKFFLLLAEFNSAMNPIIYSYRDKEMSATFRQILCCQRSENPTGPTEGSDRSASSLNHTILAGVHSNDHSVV

## Cc1ccc(NC(=O)N(c2ccccc2C(C)C)C2CN(S(N)(=O)=O)C2)c(OC(F)F)n1 [Example 127, 3-(3-(2-(difluoromethoxy)-6-methylpyridin-3-yl)-1-(2-isopropylphenyl)ureido)azetidine-1-sulfonamide]
[1]
  IC50: 10 to 100 nM

## Cc1ccc(NC(=O)N(c2ccccc2C(C)C)C2CC3(C2)CN(S(N)(=O)=O)C3)c(OC(F)F)c1 [Example 128]
[1]
  IC50: 10 to 100 nM

## CC(=O)N1CCC(N(C(=O)Nc2ncc(Br)cc2OC(F)F)c2ccccc2C(C)C)CC1 [Example 129, 1-(1-acetylpiperidin-4-yl)-3-(5-bromo-3-(difluoromethoxy)pyridin-2-yl)-1-(2-isopropylphenyl)urea]
LPAR1 IC50
  IC50: 10 to 100 nM

## CC(=O)N1CCC(N(C(=O)Nc2cnccn2)c2ccccc2C(C)C)CC1 [Example 130]
LPAR1 IC50
  IC50: > 1000 nM

## CC(=O)N1CCC(N(C(=O)Nc2cnc(C)cn2)c2ccccc2C(C)C)CC1 [Example 131]
LPAR1 IC50
  IC50: 100 to 1000 nM

## CC(=O)N1CCC(N(C(=O)Nc2cnc(C(F)(F)F)cn2)c2ccccc2C(C)C)CC1 [Example 132]
LPAR1 IC50
  IC50: > 1000 nM

## CC(=O)N1CCC(N(C(=O)Nc2ncc(F)cc2Br)c2ccccc2C(C)C)CC1 [Example 137]
LPAR1 IC50
  IC50: > 1000 nM

## CC(=O)N1CCC(N(C(=O)Nc2ncc(C(F)(F)F)cc2Br)c2ccccc2C(C)C)CC1 [Example 139]
LPAR1 IC50
  IC50: > 1000 nM

## CC(=O)N1CCC(N(C(=O)Nc2ncc(Br)cc2C=O)c2ccccc2C(C)C)CC1 [Example 140]
LPAR1 IC50
  IC50: 100 to 1000 nM

## CC(=O)N1CCC(N(C(=O)Nc2ncc(Br)cc2OC(F)F)c2ncccc2C(C)C)CC1 [Example 142]
LPAR1 IC50
  IC50: > 1000 nM

## CC(=O)N1CCC(N(C(=O)Nc2ccc(C)cn2)c2ccccc2C(C)C)CC1 [Example 143, 1-(1-acetylpiperidin-4-yl)-1-(2-isopropylphenyl)-3-(5-methylpyridin-2-yl)urea]
LPAR1 IC50
  IC50: > 1000 nM

## COc1ccc(NC(=O)N(c2ccccc2C(C)C)[C@H]2CC[C@H](C(=O)O)CC2)c(OC(F)F)n1 [Example 144, trans-4-(3-(2-(difluoromethoxy)-6-methoxypyridin-3-yl)-1-(2-isopropylphenyl)ureido)cyclohexane-1-carboxylic acid]
[1]
  IC50: 10 to 100 nM

## COc1ccc(NC(=O)N(c2ccccc2C(C)C)[C@H]2CC[C@@H](C(=O)O)CC2)c(OC(F)F)n1 [Example 145]
[1]
  IC50: 100 to 1000 nM

## COc1ccc(NC(=O)N(c2ccccc2C(C)C)[C@H]2CCC[C@H](C(=O)O)C2)c(OC(F)F)n1 [Example 146]
[1]
  IC50: 10 to 100 nM

## COc1ccc(NC(=O)N(c2ccccc2C(C)C)[C@H]2CCC[C@@H](C(=O)O)C2)c(OC(F)F)n1 [Example 147]
[1]
  IC50: < 10 nM

## COc1ccc(NC(=O)N(c2ccccc2C(C)C)C2CC(CC(=O)O)C2)c(OC(F)F)n1 (centres unmarked) [Example 148]
[1]
  IC50: < 10 nM

## COc1ccc(NC(=O)N(c2ccccc2C(C)C)[C@H]2C[C@@]3(C[C@@H]3C(=O)O)C2)c(OC(F)F)n1 [Example 149]
[1]
  IC50: 10 to 100 nM

## COc1ccc(NC(=O)N(c2ccccc2C(C)C)[C@H]2C[C@]3(C[C@H]3C(=O)O)C2)c(OC(F)F)n1 [Example 150]
[1]
  IC50: < 10 nM

## COc1ccc(NC(=O)N(c2ccccc2C(C)C)[C@H]2C[C@H](C(=O)O)C2)c(OC(F)F)n1 [Example 151]
[1]
  IC50: 10 to 100 nM

## COc1ccc(NC(=O)N(c2ccccc2C(C)C)[C@H]2C[C@@H](C(=O)O)C2)c(OC(F)F)n1 [Example 152]
[1]
  IC50: 100 to 1000 nM

## Cc1ccc(NC(=O)N(c2ccccc2C(C)C)[C@H]2CC[C@H](C(=O)O)CC2)c(OC(F)F)n1 [Example 155, trans-4-(3-(2-(difluoromethoxy)-6-methylpyridin-3-yl)-1-(2-isopropylphenyl)ureido)cyclohexane-1-carboxylic acid]
[1]
  IC50: 10 to 100 nM

## [2H]C([2H])([2H])c1ccc(NC(=O)N(c2ccccc2C(C)C)[C@H]2CC[C@H](C(=O)O)CC2)c(OC(F)F)n1 [Example 156, trans-4-(3-(2-(difluoromethoxy)-6-(methyl-d3)pyridin-3-yl)-1-(2-isopropylphenyl)ureido)cyclohexane-1-carboxylic acid]
[1]
  IC50: < 10 nM

## Cc1cc(OC(F)F)c(NC(=O)N(c2ccccc2C(C)C)[C@H]2CC[C@H](C(=O)O)CC2)cn1 [Example 157, trans-4-(3-(4-(difluoromethoxy)-6-methylpyridin-3-yl)-1-(2-isopropylphenyl)ureido)cyclohexane-1-carboxylic acid]
[1]
  IC50: 10 to 100 nM

## CC(C)c1ccccc1N(C(=O)Nc1ccc(Cl)c(F)c1)[C@H]1CC[C@H](C(=O)O)CC1 [Example 158, trans-4-(3-(4-chloro-3-fluorophenyl)-1-(2-isopropylphenyl)ureido)cyclohexane-1-carboxylic acid]
[1]
  IC50: 10 to 100 nM

## COC(=O)CC1CC(N(C(=O)Nc2ccc(C)nc2OC(F)F)c2ccccc2C(C)C)C1 (centres unmarked) [Example 159, methyl 2-(3-(3-(2-(difluoromethoxy)-6-methylpyridin-3-yl)-1-(2-isopropylphenyl)ureido)cyclobutyl)acetate]
[1]
  IC50: 100 to 1000 nM

## Cc1ccc(NC(=O)N(c2ccccc2C(C)C)C2CC(CC(=O)O)C2)c(OC(F)F)n1 (centres unmarked) [Example 160, 2-(3-(3-(2-(difluoromethoxy)-6-methylpyridin-3-yl)-1-(2-isopropylphenyl)ureido)cyclobutyl)acetic acid]
[1]
  IC50: < 10 nM

## Cc1ccc(NC(=O)N(c2ccccc2C(C)C)[C@H]2C[C@H](C(=O)O)C2)c(OC(F)F)n1 [Example 161, trans-3-(3-(2-(difluoromethoxy)-6-methylpyridin-3-yl)-1-(2-isopropylphenyl)ureido)cyclobutane-1-carboxylic acid]
[1]
  IC50: 10 to 100 nM

## Cc1ccc(NC(=O)N(c2ccccc2C(C)C)[C@H]2C[C@@H](C(=O)O)C2)c(OC(F)F)n1 [Example 162, cis-3-(3-(2-(difluoromethoxy)-6-methylpyridin-3-yl)-1-(2-isopropylphenyl)ureido)cyclobutane-1-carboxylic acid]
[1]
  IC50: 100 to 1000 nM

## COC(=O)[C@H]1C[C@H](N(C(=O)Nc2cc(F)c(F)cc2OC(F)F)c2ccccc2C(C)C)C1 [Example 163, methyl (1r,3r)-3-(3-(2-(difluoromethoxy)-4,5-difluorophenyl)-1-(2-isopropylphenyl)ureido)cyclobutane-1-carboxylate]
[1]
  IC50: > 1000 nM

## CC(C)c1ccccc1N(C(=O)Nc1cc(F)c(F)cc1OC(F)F)[C@H]1C[C@H](C(=O)O)C1 [Example 164, trans-3-(3-(2-(difluoromethoxy)-4,5-difluorophenyl)-1-(2-isopropylphenyl)ureido)cyclobutane-1-carboxylic acid]
[1]
  IC50: 10 to 100 nM

## Cc1ccc(NC(=O)N(c2ccccc2C(C)C)[C@H]2CC[C@H](CC(=O)O)CC2)c(OC(F)F)n1 [Example 165, 2-((1r,4r)-4-(3-(2-(difluoromethoxy)-6-methylpyridin-3-yl)-1-(2-isopropylphenyl)ureido)cyclohexyl)acetic acid]
[1]
  IC50: < 10 nM

## Cc1ccc(NC(=O)N(c2ccccc2C(C)C)[C@H]2CC[C@@H](CC(=O)O)CC2)c(OC(F)F)n1 [Example 166, 2-((1s,4s)-4-(3-(2-(difluoromethoxy)-6-methylpyridin-3-yl)-1-(2-isopropylphenyl)ureido)cyclohexyl)acetic acid]
[1]
  IC50: 10 to 100 nM

## Cc1ccc(NC(=O)N(CC23CCC(C(=O)O)(CC2)CC3)c2ccccc2C(C)C)c(OC(F)F)n1 [Example 167]
[1]
  IC50: 10 to 100 nM

## Cc1ccc(NC(=O)N(CC23CC(C(=O)O)(CO2)C3)c2ccccc2C(C)C)c(OC(F)F)n1 [Example 168]
[1]
  IC50: 10 to 100 nM

## COC(=O)C1CC(CN(C(=O)Nc2ccc(C)nc2OC(F)F)c2ccccc2C(C)C)C1 (centres unmarked) [Example 169]
[1]
  IC50: 10 to 100 nM

## Cc1ccc(NC(=O)N(CC2CC(C(=O)O)C2)c2ccccc2C(C)C)c(OC(F)F)n1 (centres unmarked) [Example 170]
[1]
  IC50: < 10 nM

## Cc1ccc(NC(=O)N(C[C@H]2CC[C@H](C(=O)O)CC2)c2ccccc2C(C)C)c(OC(F)F)n1 [Example 171]
[1]
  IC50: 10 to 100 nM

## Cc1ccc(NC(=O)N(C[C@H]2CC[C@@H](C(=O)O)CC2)c2ccccc2C(C)C)c(OC(F)F)n1 [Example 172]
[1]
  IC50: 10 to 100 nM

## Cc1ccc(NC(=O)N(CC23CC(C(=O)O)(C2)C3)c2ccccc2C(C)C)c(OC(F)F)n1 [Example 173]
[1]
  IC50: 10 to 100 nM

## Cc1ccc(NC(=O)N(c2ccccc2C(C)C)C2CN(CCC3(C(=O)O)CCC3)C2)c(OC(F)F)n1 [Example 174]
[1]
  IC50: 100 to 1000 nM

## CC(C)c1ccccc1N(C(=O)Nc1ncc(Cl)cc1OC(F)F)C1CC(CC(=O)O)C1 (centres unmarked) [Example 175, 2-(3-(3-(5-chloro-3-(difluoromethoxy)pyridin-2-yl)-1-(2-isopropylphenyl)ureido)cyclobutyl)acetic acid]
[1]
  IC50: < 10 nM

## CC(C)c1ccccc1N(C(=O)Nc1ncc(Br)cc1OC(F)F)C1CC(CC(=O)O)C1 (centres unmarked) [Example 176]
[1]
  IC50: 10 to 100 nM

## COC(=O)C1CC(N(C(=O)Nc2ncc(Br)cc2OC(F)F)c2ccccc2C(C)C)C1 (centres unmarked) [Example 177]
[1]
  IC50: 10 to 100 nM

## Cc1ccc(NC(=O)N(c2ccccc2C(C)C)[C@H]2C[C@H](O)C2)c(OC(F)F)n1 [Example 181]
[1]
  IC50: 10 to 100 nM

## Cc1ccc(NC(=O)N(c2ccccc2C(C)C)[C@H]2C[C@@H](O)C2)c(OC(F)F)n1 [Example 182]
[1]
  IC50: 100 to 1000 nM

## CC(=O)N1CCC(N(C(=O)Nc2ncc(Br)nc2OC(F)F)c2ccccc2C(C)C)CC1 [Example 184, 1-(1-acetylpiperidin-4-yl)-3-(5-bromo-3-(difluoromethoxy)pyrazin-2-yl)-1-(2-isopropylphenyl)urea]
LPAR1 IC50
  IC50: 100 to 1000 nM

## COc1nc(C#N)ccc1NC(=O)N(c1ccccc1C(C)C)C1CCN(C(C)=O)CC1 [Example 185, 1-(1-acetylpiperidin-4-yl)-3-(6-cyano-2-methoxypyridin-3-yl)-1-(2-isopropylphenyl)urea]
LPAR1 IC50
  IC50: 100 to 1000 nM

## Cc1ccc(NC(=O)N(c2ccccc2C(C)C)[C@H]2C[C@H](C(N)=O)C2)c(OC(F)F)n1 [Example 186, (1r,3r)-3-(3-(2-(difluoromethoxy)-6-methylpyridin-3-yl)-1-(2-isopropylphenyl)ureido)cyclobutane-1-carboxamide]
[1]
  IC50: > 1000 nM

## Cc1ccc(NC(=O)N(c2ccccc2C(C)C)[C@H]2C[C@@H](C(N)=O)C2)c(OC(F)F)n1 [Example 187]
[1]
  IC50: > 1000 nM

## Cc1ccc(NC(=O)N(c2ccccc2C(C)C)[C@H]2C[C@H](CC(N)=O)C2)c(OC(F)F)n1 [Example 188]
[1]
  IC50: 100 to 1000 nM
